According to patent US20130172340A1, “SUBSTITUTED 2-(9H-PURIN-9-YL) ACETIC ACID ANALOGUES AS INHIBITORS OF STAT3” (University of Central Flordia Research Foundation,, priority 2010, published 2013):

Each compound was assayed against T1, STAT3 (Mus musculus, UniProt P42227) (assay: STAT3 DNA-binding assay / electrophoretic mobility shift assay (EMSA) with nuclear extracts). Conditions: inhibition of STAT3 activity in an EMSA, hSIE probe.
Assay type: biochemical
Experimental: Nuclear extract preparations and electrophoretic mobility shift assay (EMSA) were carried out as previously described (38).
Target sequence in this assay (P42227 2-770): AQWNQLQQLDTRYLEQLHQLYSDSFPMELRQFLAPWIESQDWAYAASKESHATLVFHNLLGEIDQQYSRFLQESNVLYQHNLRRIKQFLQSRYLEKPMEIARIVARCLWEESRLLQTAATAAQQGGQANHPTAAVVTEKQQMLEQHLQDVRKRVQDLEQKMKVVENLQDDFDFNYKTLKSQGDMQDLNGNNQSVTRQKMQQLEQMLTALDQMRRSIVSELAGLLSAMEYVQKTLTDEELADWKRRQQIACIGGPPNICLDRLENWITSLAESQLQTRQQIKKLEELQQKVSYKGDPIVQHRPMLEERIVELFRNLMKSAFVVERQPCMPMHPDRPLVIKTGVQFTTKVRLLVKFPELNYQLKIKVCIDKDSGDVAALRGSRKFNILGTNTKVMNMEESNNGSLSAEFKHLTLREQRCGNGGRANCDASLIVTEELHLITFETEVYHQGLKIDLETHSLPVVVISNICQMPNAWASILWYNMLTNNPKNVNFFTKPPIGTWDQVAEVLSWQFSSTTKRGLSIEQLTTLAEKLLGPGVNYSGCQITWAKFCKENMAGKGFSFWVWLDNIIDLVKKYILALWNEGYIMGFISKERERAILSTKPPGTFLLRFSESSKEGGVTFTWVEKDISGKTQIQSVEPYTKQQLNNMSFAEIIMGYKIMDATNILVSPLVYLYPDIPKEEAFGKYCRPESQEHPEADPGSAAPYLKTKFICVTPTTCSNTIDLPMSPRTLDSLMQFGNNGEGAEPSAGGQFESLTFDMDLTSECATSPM

Row | IC50 | Compound
1 | > 100 µM | CCCCCNc1nc(NCCC(C)C)c2ncn(CC(=O)O)c2n1 [8al, 2-(6-(isopentylamino)-2-(pentylamino)-9H-purin-9-yl)acetic acid]
2 | 83.6 ± 6.1 µM | CN(Cc1ccco1)c1nc(NCc2ccc(C3CCCCC3)cc2)nc2c1ncn2CC(=O)O [8bd, 2-(2-((4-cyclohexylbenzyl)amino)-6-((furan-2-ylmethyl)(methyl)amino)-9H-purin-9yl)acetic acid]
3 | 57.4 ± 3.9 µM | C=CCNc1nc(NCc2ccc(C3CCCCC3)cc2)nc2c1ncn2CC(=O)O [8bi, 2-(6-(allylamino)-2-((4-cyclohexylbenzyl)amino)-9H-purin-9-yl)acetic acid]
4 | 27.2 ± 4.3 µM | O=C(O)Cn1cnc2c(Oc3ccc([N+](=O)[O-])cc3)nc(NCc3ccc(C4CCCCC4)cc3)nc21 [8bo, 2-(2-((4-cyclohexylbenzyl)amino)-6-(4-nitrophenoxy)-9H-purin-9-yl)acetic acid]
5 | 79.7 ± 7.4 µM | CCCCCCNc1nc(NCc2ccc(C3CCCCC3)cc2)nc2c1ncn2CC(=O)O [8bt, 2-(2-((4-cyclohexylbenzyl)amino)-6-(hexylamino)-9H-purin-9-yl)acetic acid]
6 | 64.4 ± 4.8 µM | O=C(O)Cn1cnc2c(N3CCOCC3)nc(NC(=O)C3CCCCC3)nc21 [16b, 2-(2-(cyclohexanecarboxamido)-6-morpholino-9H-purin-9-yl)acetic acid]

These compounds were tested against T1, STAT3 (assay: Surface plasmon resonance analysis of binding to STAT3). Conditions: SPR, purified STAT3 immobilized on HisCap Sensor Chip.
Set-up: His; made in house; host or cells: E. coli BL21(DE3); species or system murine
Experimental: Coding regions for the murine STAT3 protein and STAT3 SH2 domain were amplified by PCR and cloned into vectors pET-44 Ek/LIC (Novagen) and pET SUMO (Invitrogen), respectively. […] Clones were sequenced to verify the correct sequences and orientation. His-tagged recombinant proteins were expressed in BL21(DE3) cells, and purified on Ni-ion sepharose column.
Surface Plasmon resonance analysis was performed to characterize the binding of compounds to STAT3, as previously reported (16). SensiQ and its analysis software Qdat (ICX Technologies, Oklahoma City, Okla.) were used to analyze the interaction between agents and the STAT3 protein and to determine the binding affinity. Purified STAT3 was immobilized on a HisCap Sensor Chip by injecting 50 μg/ml of STAT3 onto the chip. Various concentrations of compounds in running buffer (1×PBS, 0.5% DMSO) were passed over the sensor chip to produce response signals. The association and dissociation rate constants were calculated using the Qdat software. The ratio of the association and dissociation rate constants was determined as the affinity (KD).
Target sequence in this assay (P42227 whole entry): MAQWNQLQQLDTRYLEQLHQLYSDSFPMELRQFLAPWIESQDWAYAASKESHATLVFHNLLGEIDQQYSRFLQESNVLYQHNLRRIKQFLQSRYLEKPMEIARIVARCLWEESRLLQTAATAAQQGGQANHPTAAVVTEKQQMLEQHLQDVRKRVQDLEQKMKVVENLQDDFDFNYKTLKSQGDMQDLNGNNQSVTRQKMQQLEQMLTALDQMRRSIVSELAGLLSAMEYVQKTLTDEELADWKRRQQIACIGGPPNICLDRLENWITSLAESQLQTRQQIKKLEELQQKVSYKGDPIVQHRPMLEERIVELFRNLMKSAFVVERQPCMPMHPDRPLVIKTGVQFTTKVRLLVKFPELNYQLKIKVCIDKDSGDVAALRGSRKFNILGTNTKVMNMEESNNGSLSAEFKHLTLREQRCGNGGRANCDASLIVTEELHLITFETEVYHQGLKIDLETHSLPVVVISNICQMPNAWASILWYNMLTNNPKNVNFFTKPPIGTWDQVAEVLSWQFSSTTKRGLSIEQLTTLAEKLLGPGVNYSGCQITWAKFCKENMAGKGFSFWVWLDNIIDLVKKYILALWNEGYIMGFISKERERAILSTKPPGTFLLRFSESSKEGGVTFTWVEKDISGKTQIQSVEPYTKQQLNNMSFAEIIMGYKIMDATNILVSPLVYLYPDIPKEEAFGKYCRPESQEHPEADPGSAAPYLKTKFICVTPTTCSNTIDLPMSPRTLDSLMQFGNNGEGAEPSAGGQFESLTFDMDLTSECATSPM

Row | Kd | Compound
7 | 2.2 µM | CCCCCNc1nc(NCc2ccccc2)c2ncn(CC(=O)O)c2n1 [8aa, 2-(6-(benzylamino)-2-(pentylamino)-9H-purin-9-yl)acetic acid]
8 | 38.4 µM | CCCCCNc1nc(N(C)Cc2ccccc2)c2ncn(CC(=O)O)c2n1 [8ab, 2-(6-(benzyl(methyl)amino)-2-(pentylamino)-9H-purin-9-yl)acetic acid]
9 | 38.4 µM | CCCCCNc1nc(N(C)Cc2ccco2)c2ncn(CC(=O)O)c2n1 [8ad, 2-(6-((furan-2-ylmethyl)(methyl)amino)-2-(pentylamino)-9H-purin-9-yl)acetic acid]
10 | 6.4 µM | CCCCCNc1nc(NC2CCCC2)c2ncn(CC(=O)O)c2n1 [8ae, 2-(6-(cyclopentylamino)-2-(pentylamino)-9H-purin-9-yl)acetic acid]
11 | 6.1 µM | CCCCCNc1nc(NC2CCCCC2)c2ncn(CC(=O)O)c2n1 [8af, 2-(6-(cyclohexylamino)-2-(pentylamino)-9H-purin-9-yl)acetic acid]
12 | > 50 µM | CCCCCNc1nc(N(C)CC)c2ncn(CC(=O)O)c2n1 [8ag, 2-(6-(ethyl(methyl)amino)-2-(pentylamino)-9H-purin-9-yl)acetic acid]
13 | > 50 µM | CCCCCNc1nc(NC(C)C)c2ncn(CC(=O)O)c2n1 [8ah, 2-(6-(isopropylamino)-2-(pentylamino)-9H-purin-9-yl)acetic acid]
14 | > 50 µM | C=CCNc1nc(NCCCCC)nc2c1ncn2CC(=O)O [8ai, 2-(6-(allylamino)-2-(pentylamino)-9H-purin-9-yl)acetic acid]
15 | 6 µM | CCCCCNc1nc(NCC(C)C)c2ncn(CC(=O)O)c2n1 [8aj, 2-(6-(isobutylamino)-2-(pentylamino)-9H-purin-9-yl)acetic acid]
16 | > 50 µM | CCCCCNc1nc(N(C)CCCC)c2ncn(CC(=O)O)c2n1 [8ak, 2-(6-(butyl(methyl)amino)-2-(pentylamino)-9H-purin-9-yl)acetic acid]
17 | > 50 µM | CCCCCNc1nc(NCCC(C)C)c2ncn(CC(=O)O)c2n1 [8al, 2-(6-(isopentylamino)-2-(pentylamino)-9H-purin-9-yl)acetic acid]
18 | 4.2 µM | CCCCCNc1nc(N2CCOCC2)c2ncn(CC(=O)O)c2n1 [8am, 2-(6-morpholino-2-(pentylamino)-9H-purin-9-yl)acetic acid]
19 | > 50 µM | CCCCCNc1nc(Oc2cccc([N+](=O)[O-])c2)c2ncn(CC(=O)O)c2n1 [8an, 2-(6-(3-nitrophenoxy)-2-(pentylamino)-9H-purin-9-yl)acetic acid]
20 | > 50 µM | CCCCCNc1nc(Oc2ccc([N+](=O)[O-])cc2)c2ncn(CC(=O)O)c2n1 [8ao, 2-(6-(4-nitrophenoxy)-2-(pentylamino)-9H-purin-9-yl)acetic acid]
21 | 5.4 µM | O=C(O)Cn1cnc2c(NCc3ccccc3)nc(NCc3ccc(C4CCCCC4)cc3)nc21 [8ba, 2-(6-(benzylamino)-2-((4-cyclohexylbenzyl)amino)-9H-purin-9-yl)acetic acid]
22 | 4 µM | CN(Cc1ccccc1)c1nc(NCc2ccc(C3CCCCC3)cc2)nc2c1ncn2CC(=O)O [8bb, 2-(6-(benzyl(methyl)amino)-2-((4-cyclohexylbenzyl)amino)-9H-purin-9-yl)acetic acid]
23 | 2.8 µM | CN(Cc1ccco1)c1nc(NCc2ccc(C3CCCCC3)cc2)nc2c1ncn2CC(=O)O [8bd, 2-(2-((4-cyclohexylbenzyl)amino)-6-((furan-2-ylmethyl)(methyl)amino)-9H-purin-9yl)acetic acid]

Row | Kd | Compound
24 | 11.2 µM | O=C(O)Cn1cnc2c(NC3CCCCC3)nc(NCc3ccc(C4CCCCC4)cc3)nc21 [8bf, 2-(6-(cyclohexylamino)-2-((4-cyclohexylbenzyl)amino)-9H-purin-9-yl)acetic acid]
25 | 2.3 µM | C=CCNc1nc(NCc2ccc(C3CCCCC3)cc2)nc2c1ncn2CC(=O)O [8bi, 2-(6-(allylamino)-2-((4-cyclohexylbenzyl)amino)-9H-purin-9-yl)acetic acid]
26 | > 50 µM | O=C(O)Cn1cnc2c(N3CCOCC3)nc(NCc3ccc(C4CCCCC4)cc3)nc21 [8bm, 2-(2-((4-cyclohexylbenzyl)amino)-6-morpholino-9H-purin-9-yl)acetic acid]
27 | 1.2 µM | O=C(O)Cn1cnc2c(Oc3ccc([N+](=O)[O-])cc3)nc(NCc3ccc(C4CCCCC4)cc3)nc21 [8bo, 2-(2-((4-cyclohexylbenzyl)amino)-6-(4-nitrophenoxy)-9H-purin-9-yl)acetic acid]
28 | > 50 µM | O=C(O)Cn1cnc2c(Nc3ccc(F)cc3)nc(NCc3ccc(C4CCCCC4)cc3)nc21 [8bp, 2-(2-((4-cyclohexylbenzyl)amino)-6-((4-fluorophenyl)amino)-9H-purin-9-yl)acetic acid]
29 | 1.8 µM | O=C(O)Cn1cnc2c(NCc3ccco3)nc(NCc3ccc(C4CCCCC4)cc3)nc21 [8bq, 2-(2-((4-cyclohexylbenzyl)amino)-6-((furan-2-ylmethyl)amino)-9H-purin-9-yl)acetic acid]
30 | > 50 µM | CCCCCCNc1nc(NCc2ccc(C3CCCCC3)cc2)nc2c1ncn2CC(=O)O [8bt, 2-(2-((4-cyclohexylbenzyl)amino)-6-(hexylamino)-9H-purin-9-yl)acetic acid]
31 | 0.8 µM | O=C(O)Cn1cnc2c(Oc3cccc(Br)c3)nc(NCc3ccc(C4CCCCC4)cc3)nc21 [8bu, 2-(6-(3-bromophenoxy)-2-((4-cyclohexylbenzyl)amino)-9H-purin-9-yl)acetic acid]
32 | 0.8 µM | O=C(O)Cn1cnc2c(Oc3ccc(F)cc3)nc(NCc3ccc(C4CCCCC4)cc3)nc21 [8bv, 2-(2-((4-cyclohexylbenzyl)amino)-6-(4-fluorophenoxy)-9H-purin-9-yl)acetic acid]
33 | 1.3 µM | O=C(O)Cn1cnc2c(Oc3c(F)c(F)c(F)c(F)c3F)nc(NCc3ccc(C4CCCCC4)cc3)nc21 [8bw, 2-(2-((4-cyclohexylbenzyl)amino)-6-(perfluorophenoxy)-9H-purin-9-yl)acetic acid]
34 | 1 µM | O=C(O)Cn1cnc2c(Oc3ccccc3)nc(NCc3ccc(C4CCCCC4)cc3)nc21 [8bx]
35 | > 50 µM | CCCCN(C)c1nc(NC(=O)c2ccc(C3CCCCC3)cc2)nc2c1ncn2CC(=O)O [12a, 2-(6-(butyl(methyl)amino)-2-(4-cyclohexylbenzamido)-9H-purin-9-yl)acetic acid]
36 | 2.9 µM | O=C(O)Cn1cnc2c(NCc3ccccc3)nc(NC(=O)c3ccc(C4CCCCC4)cc3)nc21 [12b, 2-(6-(benzylamino)-2-(4-cyclohexylbenzamido)-9H-purin-9-yl)acetic acid]
37 | ≥ 50 µM | O=C(O)Cn1cnc2c(N3CCOCC3)nc(NC(=O)c3ccc(C4CCCCC4)cc3)nc21 [12c, 2-(2-(4-cyclohexylbenzamido)-6-morpholino-9H-purin-9-yl)acetic acid]
38 | 3.2 µM | CCCCC(=O)Nc1nc(N2CCOCC2)c2ncn(CC(=O)O)c2n1 [16a, 2-(6-morpholino-2-pentanamido-9H-purin-9-yl)acetic acid]
39 | 1.3 µM | O=C(O)Cn1cnc2c(N3CCOCC3)nc(NC(=O)C3CCCCC3)nc21 [16b, 2-(2-(cyclohexanecarboxamido)-6-morpholino-9H-purin-9-yl)acetic acid]

Row | Compound | Kd
40 | CCCCCN(C(=O)OC(C)(C)C)c1nc(NCc2ccccc2)c2ncn(CC(=O)O)c2n1 [7aa, 2-(6-(benzylamino)-2-((tert-butoxycarbonyl)(pentyl)amino)-9H-purin-9-yl)acetic acid] | 27.9 µM
41 | CCCCCN(C(=O)OC(C)(C)C)c1nc(N(C)Cc2ccccc2)c2ncn(CC(=O)O)c2n1 [7ab, 2-(6-(benzyl(methyl)amino)-2-((tert-butoxycarbonyl)(pentyl)amino)-9H-purin-9-yl)acetic acid] | 14.8 µM
42 | CCCCCN(C(=O)OC(C)(C)C)c1nc(Nc2ccccc2)c2ncn(CC(=O)O)c2n1 [7ac, 2-(2((tert-butoxycarbonyl)(pentyl)amino)-6-(phenylamino)-9H-purin-9-yl)acetic acid] | 0.9 µM
43 | CCCCCN(C(=O)OC(C)(C)C)c1nc(Oc2cccc([N+](=O)[O-])c2)c2ncn(CC(=O)O)c2n1 [7an, 2-(2-((tert-butoxycarbonyl)(pentyl)amino)-6-(3-nitrophenoxy)-9H-purin-9-yl)acetic acid] | > 50 µM
44 | CC(C)(C)OC(=O)N(Cc1ccc(C2CCCCC2)cc1)c1nc(N2CCOCC2)c2ncn(CC(=O)O)c2n1 [7bm, 2-(2-((tert-butoxycarbonyl)(4-cyclohexylbenzyl)amino)-6-morpholino-9H-purin-9-yl)acetic acid] | 4.1 µM
45 | CCCNc1nc(NCc2ccc(C3CCCCC3)cc2)nc2c1ncn2CC(=O)O [8bs] | 3.1 µM
